Laboratory results from publication PMC7026418, “The kinase polypharmacology landscape of clinical PARP inhibitors” (Scientific Reports, 2020).
Where two headings read alike, the source gives them in different places. Values belong to the compound of their own block, whether it stands above or below them.

Experiments:
Assay in all cases: biochemical
Design in all cases: DiscoveRx KINOMEscan active site-directed competition binding; percent of control kinase bound to immobilised ligand
[1] = biological target: CSF1R (Homo sapiens, UniProt P07333)
CSF1R, sequence (P07333 whole entry): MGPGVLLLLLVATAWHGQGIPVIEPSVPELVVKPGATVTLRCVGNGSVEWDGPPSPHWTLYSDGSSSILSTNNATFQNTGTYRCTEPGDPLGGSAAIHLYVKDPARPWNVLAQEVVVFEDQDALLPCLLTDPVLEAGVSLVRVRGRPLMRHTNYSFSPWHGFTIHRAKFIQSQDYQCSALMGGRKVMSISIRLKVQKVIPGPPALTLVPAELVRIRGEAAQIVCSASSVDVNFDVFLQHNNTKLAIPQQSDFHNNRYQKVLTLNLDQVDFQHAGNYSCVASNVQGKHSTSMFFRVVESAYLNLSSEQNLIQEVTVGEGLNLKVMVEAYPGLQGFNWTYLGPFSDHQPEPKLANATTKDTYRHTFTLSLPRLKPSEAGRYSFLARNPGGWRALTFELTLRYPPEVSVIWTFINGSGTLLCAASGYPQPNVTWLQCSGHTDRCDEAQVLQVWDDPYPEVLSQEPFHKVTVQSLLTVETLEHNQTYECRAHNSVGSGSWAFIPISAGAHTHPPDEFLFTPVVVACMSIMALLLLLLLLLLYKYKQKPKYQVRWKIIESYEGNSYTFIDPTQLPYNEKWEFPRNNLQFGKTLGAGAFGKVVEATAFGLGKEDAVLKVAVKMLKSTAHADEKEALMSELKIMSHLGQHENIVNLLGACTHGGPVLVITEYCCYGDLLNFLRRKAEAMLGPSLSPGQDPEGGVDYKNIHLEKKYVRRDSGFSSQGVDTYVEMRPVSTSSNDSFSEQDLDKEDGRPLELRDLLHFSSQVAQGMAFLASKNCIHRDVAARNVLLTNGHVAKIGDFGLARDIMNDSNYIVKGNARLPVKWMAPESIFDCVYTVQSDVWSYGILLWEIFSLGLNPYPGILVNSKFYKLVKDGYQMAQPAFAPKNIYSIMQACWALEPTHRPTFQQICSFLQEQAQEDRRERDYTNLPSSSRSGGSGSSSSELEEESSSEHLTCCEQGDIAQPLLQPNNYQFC

[2] = biological target: CSF1R-autoinhibited (Homo sapiens, UniProt P07333)
CSF1R-autoinhibited, sequence (P07333 whole entry): as above

[3] = biological target: FES (Homo sapiens, UniProt P07332)
FES, sequence (P07332 whole entry): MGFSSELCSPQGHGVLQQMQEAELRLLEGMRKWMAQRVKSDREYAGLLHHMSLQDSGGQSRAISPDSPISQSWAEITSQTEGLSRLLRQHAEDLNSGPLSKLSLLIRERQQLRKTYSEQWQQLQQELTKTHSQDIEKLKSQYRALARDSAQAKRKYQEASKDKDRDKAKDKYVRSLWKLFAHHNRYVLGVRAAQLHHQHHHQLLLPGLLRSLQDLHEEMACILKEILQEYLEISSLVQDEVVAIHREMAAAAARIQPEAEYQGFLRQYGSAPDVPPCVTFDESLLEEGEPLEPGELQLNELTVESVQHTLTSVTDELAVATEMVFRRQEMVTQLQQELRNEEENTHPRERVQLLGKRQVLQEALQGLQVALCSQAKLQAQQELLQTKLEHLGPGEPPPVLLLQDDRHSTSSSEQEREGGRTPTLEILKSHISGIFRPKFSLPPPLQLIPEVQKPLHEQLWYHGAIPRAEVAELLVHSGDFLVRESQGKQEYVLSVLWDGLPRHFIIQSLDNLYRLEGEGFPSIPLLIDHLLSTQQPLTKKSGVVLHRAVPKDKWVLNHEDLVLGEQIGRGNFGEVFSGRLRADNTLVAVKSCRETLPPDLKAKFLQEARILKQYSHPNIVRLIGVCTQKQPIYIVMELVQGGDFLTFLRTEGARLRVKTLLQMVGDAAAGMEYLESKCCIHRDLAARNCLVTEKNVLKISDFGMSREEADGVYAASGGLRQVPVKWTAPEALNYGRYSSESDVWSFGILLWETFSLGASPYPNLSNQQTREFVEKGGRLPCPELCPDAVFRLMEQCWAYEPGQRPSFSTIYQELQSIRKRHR

[4] = biological target: T1, FLT3(ITD,F691L) (Homo sapiens, UniProt P36888, F691L/ITD)
T1 sequence (P36888 564-993 F691L): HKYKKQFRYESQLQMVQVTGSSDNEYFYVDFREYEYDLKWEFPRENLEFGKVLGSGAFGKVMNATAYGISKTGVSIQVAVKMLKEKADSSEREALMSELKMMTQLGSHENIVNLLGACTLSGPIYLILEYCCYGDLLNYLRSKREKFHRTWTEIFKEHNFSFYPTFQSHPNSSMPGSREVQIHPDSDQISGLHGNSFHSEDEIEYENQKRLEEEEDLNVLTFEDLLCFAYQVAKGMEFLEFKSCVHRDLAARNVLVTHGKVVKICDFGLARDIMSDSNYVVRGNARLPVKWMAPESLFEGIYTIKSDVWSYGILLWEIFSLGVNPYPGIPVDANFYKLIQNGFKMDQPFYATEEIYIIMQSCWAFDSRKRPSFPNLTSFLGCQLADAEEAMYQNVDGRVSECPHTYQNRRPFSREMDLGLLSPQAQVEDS

[5] = biological target: LIMK2 (Homo sapiens, UniProt P53671)
LIMK2, sequence (P53671 whole entry): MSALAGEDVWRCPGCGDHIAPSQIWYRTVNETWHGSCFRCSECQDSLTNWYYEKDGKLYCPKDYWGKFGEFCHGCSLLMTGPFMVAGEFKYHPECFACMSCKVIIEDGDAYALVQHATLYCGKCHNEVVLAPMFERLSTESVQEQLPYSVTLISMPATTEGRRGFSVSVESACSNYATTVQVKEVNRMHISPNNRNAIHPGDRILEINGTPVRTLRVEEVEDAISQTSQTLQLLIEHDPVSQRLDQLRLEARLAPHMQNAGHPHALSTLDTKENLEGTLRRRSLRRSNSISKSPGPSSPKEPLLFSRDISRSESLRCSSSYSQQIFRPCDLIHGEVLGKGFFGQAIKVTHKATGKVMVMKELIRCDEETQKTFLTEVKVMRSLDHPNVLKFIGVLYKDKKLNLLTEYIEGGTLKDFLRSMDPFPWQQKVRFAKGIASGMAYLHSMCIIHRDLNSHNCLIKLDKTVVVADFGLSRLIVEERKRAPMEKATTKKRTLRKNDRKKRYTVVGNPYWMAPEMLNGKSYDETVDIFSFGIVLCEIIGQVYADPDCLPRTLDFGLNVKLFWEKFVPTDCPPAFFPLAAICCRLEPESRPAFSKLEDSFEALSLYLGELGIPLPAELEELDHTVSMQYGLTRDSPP

[6] = biological target: T2, LZK (Homo sapiens, UniProt O43283)
T2 construct: gene MAP3K13
T2 sequence (O43283 1-966): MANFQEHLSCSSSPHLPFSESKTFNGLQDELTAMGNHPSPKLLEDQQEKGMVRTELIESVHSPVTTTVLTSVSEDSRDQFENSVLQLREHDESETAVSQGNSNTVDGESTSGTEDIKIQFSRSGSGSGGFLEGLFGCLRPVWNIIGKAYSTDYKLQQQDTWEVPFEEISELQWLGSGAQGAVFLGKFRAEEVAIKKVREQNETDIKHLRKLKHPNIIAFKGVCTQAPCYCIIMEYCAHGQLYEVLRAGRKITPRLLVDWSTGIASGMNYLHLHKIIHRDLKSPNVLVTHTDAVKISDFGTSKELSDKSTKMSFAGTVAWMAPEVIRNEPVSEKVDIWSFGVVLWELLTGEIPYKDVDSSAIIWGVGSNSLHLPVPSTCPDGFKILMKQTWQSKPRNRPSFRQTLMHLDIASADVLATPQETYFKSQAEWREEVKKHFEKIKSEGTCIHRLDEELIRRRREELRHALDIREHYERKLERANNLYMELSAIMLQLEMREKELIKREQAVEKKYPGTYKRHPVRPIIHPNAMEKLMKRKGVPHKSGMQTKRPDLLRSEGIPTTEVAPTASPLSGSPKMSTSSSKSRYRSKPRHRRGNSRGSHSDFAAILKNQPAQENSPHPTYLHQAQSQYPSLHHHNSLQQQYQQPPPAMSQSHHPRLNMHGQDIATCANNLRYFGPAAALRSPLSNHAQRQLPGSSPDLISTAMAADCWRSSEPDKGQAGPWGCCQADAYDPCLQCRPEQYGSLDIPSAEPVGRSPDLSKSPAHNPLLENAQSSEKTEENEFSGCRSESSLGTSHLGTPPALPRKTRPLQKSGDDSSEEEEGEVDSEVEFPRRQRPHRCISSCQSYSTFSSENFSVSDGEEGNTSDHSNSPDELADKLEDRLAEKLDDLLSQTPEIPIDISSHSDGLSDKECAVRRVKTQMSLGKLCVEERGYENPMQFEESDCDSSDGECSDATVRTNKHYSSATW

[7] = biological target: T3, MLK3 (Homo sapiens, UniProt Q16584)
T3 construct: gene MAP3K11
T3 sequence (Q16584 whole entry): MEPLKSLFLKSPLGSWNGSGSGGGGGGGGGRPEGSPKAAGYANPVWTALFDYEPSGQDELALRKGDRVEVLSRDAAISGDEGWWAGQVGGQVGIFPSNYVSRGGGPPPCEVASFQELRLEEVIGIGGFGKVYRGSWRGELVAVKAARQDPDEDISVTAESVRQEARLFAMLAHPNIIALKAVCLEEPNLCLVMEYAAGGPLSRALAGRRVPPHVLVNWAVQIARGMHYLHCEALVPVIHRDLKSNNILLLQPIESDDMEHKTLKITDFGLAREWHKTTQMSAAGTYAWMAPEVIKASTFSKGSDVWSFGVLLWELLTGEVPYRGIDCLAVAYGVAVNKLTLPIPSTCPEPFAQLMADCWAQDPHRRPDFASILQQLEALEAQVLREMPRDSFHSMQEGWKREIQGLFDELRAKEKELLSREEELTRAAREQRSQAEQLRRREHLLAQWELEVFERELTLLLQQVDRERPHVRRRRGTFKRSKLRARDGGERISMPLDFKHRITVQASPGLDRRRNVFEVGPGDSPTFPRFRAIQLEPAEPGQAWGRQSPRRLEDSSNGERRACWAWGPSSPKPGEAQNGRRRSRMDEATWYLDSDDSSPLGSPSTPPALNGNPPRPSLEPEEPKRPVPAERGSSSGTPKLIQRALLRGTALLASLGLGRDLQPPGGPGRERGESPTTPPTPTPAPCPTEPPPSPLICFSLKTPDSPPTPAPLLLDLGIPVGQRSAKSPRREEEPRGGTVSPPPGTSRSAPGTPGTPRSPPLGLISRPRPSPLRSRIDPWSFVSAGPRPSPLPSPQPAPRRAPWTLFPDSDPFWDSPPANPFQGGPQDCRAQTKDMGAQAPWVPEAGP

[8] = biological target: T4, NEK11 (Homo sapiens, UniProt Q8NG66)
T4 sequence (Q8NG66 1-645): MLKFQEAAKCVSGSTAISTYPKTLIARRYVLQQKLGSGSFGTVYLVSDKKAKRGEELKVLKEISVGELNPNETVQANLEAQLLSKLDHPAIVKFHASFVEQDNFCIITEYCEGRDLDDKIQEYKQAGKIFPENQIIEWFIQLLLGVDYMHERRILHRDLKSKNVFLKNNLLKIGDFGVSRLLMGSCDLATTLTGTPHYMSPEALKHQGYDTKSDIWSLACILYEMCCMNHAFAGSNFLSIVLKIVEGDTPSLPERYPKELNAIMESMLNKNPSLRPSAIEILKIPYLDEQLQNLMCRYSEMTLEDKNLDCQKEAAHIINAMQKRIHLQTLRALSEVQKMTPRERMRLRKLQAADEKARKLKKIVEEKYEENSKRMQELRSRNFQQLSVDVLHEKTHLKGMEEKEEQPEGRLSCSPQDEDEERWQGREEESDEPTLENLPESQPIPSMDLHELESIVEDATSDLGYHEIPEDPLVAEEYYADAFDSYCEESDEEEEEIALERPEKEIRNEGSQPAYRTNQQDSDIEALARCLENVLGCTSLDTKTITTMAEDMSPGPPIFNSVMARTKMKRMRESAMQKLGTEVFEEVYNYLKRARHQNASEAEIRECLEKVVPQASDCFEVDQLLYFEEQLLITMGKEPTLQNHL

[9] = biological target: PIK3CA(M1043I) (Homo sapiens, UniProt P42336, M1043I)
PIK3CA(M1043I), sequence (P42336 whole entry M1043I): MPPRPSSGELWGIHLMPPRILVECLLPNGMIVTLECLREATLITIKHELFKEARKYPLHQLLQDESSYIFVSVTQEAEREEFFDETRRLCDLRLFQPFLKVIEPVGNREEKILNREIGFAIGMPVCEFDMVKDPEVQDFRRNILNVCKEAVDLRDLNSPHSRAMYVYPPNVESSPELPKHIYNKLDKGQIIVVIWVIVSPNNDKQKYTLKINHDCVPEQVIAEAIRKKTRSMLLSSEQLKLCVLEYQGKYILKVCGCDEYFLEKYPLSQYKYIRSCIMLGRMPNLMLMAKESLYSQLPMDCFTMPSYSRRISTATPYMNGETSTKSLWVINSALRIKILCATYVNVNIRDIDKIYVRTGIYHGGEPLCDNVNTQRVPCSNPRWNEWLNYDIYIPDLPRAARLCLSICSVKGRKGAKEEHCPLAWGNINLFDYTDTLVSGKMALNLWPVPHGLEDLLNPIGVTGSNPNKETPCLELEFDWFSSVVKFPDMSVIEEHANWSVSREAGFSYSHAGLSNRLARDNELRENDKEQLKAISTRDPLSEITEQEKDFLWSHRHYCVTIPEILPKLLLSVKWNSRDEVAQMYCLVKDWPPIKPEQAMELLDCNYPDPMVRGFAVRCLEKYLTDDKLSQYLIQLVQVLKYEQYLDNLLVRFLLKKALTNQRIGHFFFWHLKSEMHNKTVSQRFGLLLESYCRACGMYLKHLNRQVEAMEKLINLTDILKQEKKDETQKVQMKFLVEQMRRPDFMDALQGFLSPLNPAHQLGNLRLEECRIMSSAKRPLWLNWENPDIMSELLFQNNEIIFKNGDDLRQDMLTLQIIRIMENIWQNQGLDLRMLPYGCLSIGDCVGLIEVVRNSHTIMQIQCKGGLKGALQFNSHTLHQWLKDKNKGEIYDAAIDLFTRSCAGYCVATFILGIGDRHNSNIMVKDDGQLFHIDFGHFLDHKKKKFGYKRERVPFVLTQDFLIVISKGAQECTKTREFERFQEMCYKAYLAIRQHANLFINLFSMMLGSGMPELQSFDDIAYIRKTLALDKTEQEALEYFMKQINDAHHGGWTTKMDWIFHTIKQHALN

[10] = read-out: Niraparib (MK-4827) / %Ctrl @ 10000nM
[11] = read-out: Olaparib / %Ctrl @ 10000nM
[12] = read-out: Rucaparib / %Ctrl @ 10000nM, binding competition, % of control
[13] = read-out: Talazoparib (BMN 673) / %Ctrl @ 10000nM

Structure (SMILES): NC(=O)c1cccc2cn(-c3ccc([C@@H]4CCCNC4)cc3)nc12 [Niraparib]
percent of control binding at 10 µM [1, 10]: 91% | percent of control binding at 10 µM [2, 10]: 81% | percent of control binding at 10 µM [3, 10]: 83% | percent of control binding at 10 µM [4, 10]: 42% | percent of control binding at 10 µM [5, 10]: 91% | percent of control binding at 10 µM [6, 10]: 96% | percent of control binding at 10 µM [7, 10]: 84% | percent of control binding at 10 µM [8, 10]: 99% | percent of control binding at 10 µM [9, 10]: 90%

percent of control binding at 10 µM [1, 11]: 95% | percent of control binding at 10 µM [2, 11]: 95% | percent of control binding at 10 µM [3, 11]: 92% | percent of control binding at 10 µM [4, 11]: 84% | percent of control binding at 10 µM [5, 11]: 100% | percent of control binding at 10 µM [6, 11]: 100% | percent of control binding at 10 µM [7, 11]: 100% | percent of control binding at 10 µM [8, 11]: 82% | percent of control binding at 10 µM [9, 11]: 91%
Structure (SMILES): O=C(c1cc(Cc2n[nH]c(=O)c3ccccc23)ccc1F)N1CCN(C(=O)C2CC2)CC1 [Olaparib]

percent of control binding at 10 µM [1, 12]: 94% | percent of control binding at 10 µM [2, 12]: 99% | percent of control binding at 10 µM [3, 12]: 94% | Rucaparib / %Ctrl @ 10000nM ([4]; binding competition, % of control): 26% | percent of control binding at 10 µM [5, 12]: 96% | percent of control binding at 10 µM [6, 12]: 100% | percent of control binding at 10 µM [7, 12]: 92% | percent of control binding at 10 µM [8, 12]: 91% | percent of control binding at 10 µM [9, 12]: 77%
Structure (SMILES): CNCc1ccc(-c2[nH]c3cc(F)cc4c3c2CCNC4=O)cc1 [Rucaparib]

percent of control binding at 10 µM [1, 13]: 99% | percent of control binding at 10 µM [2, 13]: 100% | percent of control binding at 10 µM [3, 13]: 98% | percent of control binding at 10 µM [4, 13]: 100% | percent of control binding at 10 µM [5, 13]: 100% | percent of control binding at 10 µM [6, 13]: 100% | percent of control binding at 10 µM [7, 13]: 70% | percent of control binding at 10 µM [8, 13]: 100% | percent of control binding at 10 µM [9, 13]: 94%
Structure (SMILES): Cn1ncnc1[C@H]1c2n[nH]c(=O)c3cc(F)cc(c23)N[C@@H]1c1ccc(F)cc1 [Talazoparib]
